Data: article PMC5641094, “A peptide antagonist of Prep1-p160 interaction improves ceramide-induced insulin resistance in skeletal muscle cells” (Oncotarget, 2017)
Ends that are not written are not given here. * marks the point of attachment. Biotin = O=C1N[C@H]2[C@H](CS[C@H]2CCCCC(=O)*)N1

Tests used:
[1] = test system: IR tyrosine phosphorylation; assay: IR tyrosine phosphorylation, immunoprecipitation and Western blot; format: cell-based, rat; conditions: L6 cells, insulin 100nM
Protocol: (§1) Figure 4 Prep1(54-72) peptide restores the insulin signaling inhibited by C2cer and Prep1 L6 cells were stimulated with insulin (100nM) and incubated with Prep1(54-72) in presence of C2cer at 10μM for 18h (A-B) or stable transfection of Prep1 (C-D). Protein lysates were immunoprecipitated with specific IR or IRS1 antibodies and analyzed by Western blot using antibodies for phosphotyrosines (pY) and beta-actin as loading control. Blots were detected by ECL and autoradiography. The autoradiographs are representative of three independent experiments. Asterisks denote statistically significant differences (*p<0.05; **p<0.01).
(§2) Total cell lysates were obtained and separated by SDS-PAGE. Briefly, cells were solubilized with lysis buffer containing 50mM HEPES, 150mM NaCl, 10mM EDTA, 10mM Na4P2O7, 2mM sodium orthovanadate, 50mM NaF, 1mM phenylmethylsulfonyl fluoride, 10μg/ml aprotinin, 10μg/ml leupeptin, pH 7.4, and 1% (v/v) Triton X-100. Lysates were clarified by centrifugation at 12,000g for 20 minutes at 4°C. The protein concentrations in the cell lysates were measured using a Bio-Rad DC (detergent compatible) assay. Immunoprecipitation and Western blot analysis have been performed as previously described.

L6 cells [2] = assay: Glycogen content in L6 cells; format: cell-based, rat; conditions: insulin 100nM, mean of three experiments
Protocol: (§3) Figure 6 Effect of Prep1(54-72) peptide on glycogen content and 2-DG uptake L6 control and Prep1 overexpressing cells were stimulated with Insulin (100nM) and/or C2cer (10μM) and incubated with Prep1(54-72). (A) Glycogen content and (B) 2-DG uptake were measured as described in methods. Bars represent the mean ± SD of three independent experiments. Asterisks denote statistically significant differences (*p<0.05; **p<0.01; ***p<0.001).
(§4) Glycogen was isolated from L6 cells homogenized in 0.1% SDS, saturated with Na2SO4 for 30 minutes at 37°C, followed by ethanol (EtOH) precipitation. Glycogen content was determined as previously described. 2-DG uptake by the L6 cells was measured as previously reported.

L6 cells [3] = assay: 2-DG uptake in L6 cells; format: cell-based, rat; conditions: insulin 100nM, mean of three experiments
Protocol: as §3, §4

[4] = test system: IRS1 tyrosine phosphorylation; assay: IRS1 tyrosine phosphorylation, immunoprecipitation and Western blot; format: cell-based, rat; conditions: L6 cells, insulin 100nM
Protocol: as §1, §2

[5] = molecular target: T1, p160_20-160/Prep1_45-155 binding (Homo sapiens, UniProt Q9BQG0); assay: ELISA-like competition of p160_20-160/Prep1_45-155 binding; conditions: His6-p160_20-160 0.25μM pre-incubated with peptide 0.001-10μM; plate coated with Prep1_45-155 (0.10μM); anti-His HRP; average of three experiments
T1 construct: pre-incubating the His6-tagged-p160_20-160 at 0.25μM with peptides; made in house
T1 sequence (Q9BQG0 20-160): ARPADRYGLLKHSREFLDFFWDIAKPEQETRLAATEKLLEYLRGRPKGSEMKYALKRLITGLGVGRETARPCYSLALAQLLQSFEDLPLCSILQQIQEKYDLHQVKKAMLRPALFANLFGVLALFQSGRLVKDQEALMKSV
Text: To address the significance of the association between Prep1 and p160 mediated by C2cer, we generated a synthetic inhibitor of the Prep1/p160 interaction. […] The synthetic peptide covering such stretch of residues was therefore chosen to generate a potential inhibitor. […] Thus, we designed and chemically synthesized a peptide spanning residues 59-72, hereafter Prep1(59-72), which comprises the predicted α-helix and a short loop at the N-terminus (Supplementary Figure 2A, upper panel). We also designed and prepared an additional peptide with a slightly longer N-terminal end, named Prep1(54-72) (Supplementary Figure 2A, lower panel), to increase the probability of obtaining a molecule with helical features. […] In order to test the affinity of Prep1 synthetic peptides to p160 protein, ELISA-like experiments were developed where N-terminally biotinylated peptide variants were added to p160_20-160 – coated 96-well plates. As shown in Figure 3A either variants bound p160_20-160 domain in a dose-dependent and saturable manner. […]
(§5) Figure 3 Design and in vitro effects of Prep1(54-72) peptide on Prep1/p160 association (A) Binding curves of Prep1(59-72) and Prep1(54-72) peptides to p160_20-160 by ELISA-like assays. […] (C) L6 cells were incubated with increasing concentrations of the fluorescein-conjugated peptide (FITC-Prep1(54-72)) and peptide uptake was detected by FACS analysis of fluorescein-labeled cells. […] Protein lysates were immunoprecipitated with Prep1 antibodies and analyzed by Western blot using antibodies for p160 or for Prep1. […] The blots were detected by ECL and autoradiography. […]
ELISA experiments were performed using an integrated platform for High-Throughput Screening (Hamilton Robotics, Bonaduz, CH) comprising a fully equipped Starlet 8 channel liquid handler, a robotic arm, a washer and a multi-wavelength plate reader. […] In particular, several concentrations of biotinylated peptides at several concentrations were added to a plate coated with p160_20-160 (0.1μM) and binding was detected with streptavidin-HRP. […] The binding was detected by anti-His HRP-conjugated antibody. […]

p160_20-160 = molecular target: T2, p160_20-160 (Homo sapiens, UniProt Q9BQG0); assay: ELISA-like direct binding of biotinylated Prep1 peptides to coated p160_20-160; conditions: N-terminally biotinylated peptide variants; plate coated with p160_20-160 (0.1μM); streptavidin-HRP; one-site binding fit; triplicate, performed at least twice
T2 construct: were added to a plate coated with p160_20-160 (0.1μM); His6; made in house
T2 sequence (Q9BQG0 20-160): T1 sequence (Q9BQG0 20-160)
Text: To address the significance of the association between Prep1 and p160 mediated by C2cer, we generated a synthetic inhibitor of the Prep1/p160 interaction. […] The synthetic peptide covering such stretch of residues was therefore chosen to generate a potential inhibitor. […] Thus, we designed and chemically synthesized a peptide spanning residues 59-72, hereafter Prep1(59-72), which comprises the predicted α-helix and a short loop at the N-terminus (Supplementary Figure 2A, upper panel). […]
as §5
ELISA experiments were performed using an integrated platform for High-Throughput Screening (Hamilton Robotics, Bonaduz, CH) comprising a fully equipped Starlet 8 channel liquid handler, a robotic arm, a washer and a multi-wavelength plate reader. […] The binding was detected by anti-His HRP-conjugated antibody. […]

[6] = test system: Prep1 and p160 protein levels in L6 cells; assay: Western blot of Prep1 and p160 protein levels in L6 cells; format: cell-based, rat; conditions: CHX 40μg/ml, 18h
Protocol: Figure 1 Effect of ceramides dose-response and time-course on Prep1 and p160 protein levels L6 skeletal muscle cells were treated with different concentration of C2cer (10μM and 100μM for 18h) (A) and for different time (10μM for 6h and 18h) (B). Protein lysates were analyzed by Western blot using antibodies for Prep1, p160 and for the beta-actin, as a loading control. Blots were detected by ECL and autoradiography. The autoradiographs are representative of four independent experiments. Asterisks denote statistically significant differences (*p<0.05; **p<0.01).
(§6) Figure 2 Effect of ceramides on Prep1 and p160 mRNA expression and of Prep1-p160 coprecipitation L6 cells were treated with C2cer (10μM) for 18h and Prep1 (A) or p160 (B) mRNA levels were analyzed by real-time RT-PCR analysis. Data were normalized by the amount of GAPDH mRNA, used as internal control. Bars represent the mean ± SD of three independent experiments, each performed in triplicate. (C) L6 cells were treated with cycloheximide (CHX) at 40μg/mL concentration for 18h and the lysates were analyzed by Western blot with anti-p160 and beta-actin. The autoradiograph shown is representative of three different experiments and subjected to densitometric analysis. (D) Protein lysates from L6 cells treated with C2cer as indicated, were immunoprecipitated with Prep1 antibody and immunoblotted with p160 or Prep1 antibodies. The autoradiograph shown is representative of three different experiments and subjected to densitometric analysis. Asterisks denote statistically significant differences (*p<0.05; **p<0.01).
Figure 3 Design and in vitro effects of Prep1(54-72) peptide on Prep1/p160 association (A) Binding curves of Prep1(59-72) and Prep1(54-72) peptides to p160_20-160 by ELISA-like assays. Biotinylated peptides at several concentrations were added in triplicate to a 96-well plate coated with p160_20-160 (0.1μM). Experiments were performed at least twice and the average results fitted using GraphPad Prism. […] (B) Competition binding experiments. His6-tagged-p160_20-160 at 0.25μM was incubated with Prep1(59-72) and Prep1(54-72) at concentrations ranging between 0.001÷10μM and added to a 96-well plate coated with Prep1_45-155 (0.10μM). Results are the average of three independent experiments. (C) L6 cells were incubated with increasing concentrations of the fluorescein-conjugated peptide (FITC-Prep1(54-72)) and peptide uptake was detected by FACS analysis of fluorescein-labeled cells. Bars represent the mean ± SD of four independent experiments. (D) L6 muscle cells incubated with Prep1(54-72) were stimulated with C2cer (10μM) for 18h. Protein lysates were immunoprecipitated with Prep1 antibodies and analyzed by Western blot using antibodies for p160 or for Prep1. (E) An aliquot of the lysate was used to measure protein expression of Prep1 and p160 and the beta-actin used as loading control. The blots were detected by ECL and autoradiography. The autoradiograph is representative of three independent experiments. Asterisks denote statistically significant differences (*p<0.05; **p<0.01).
L6 rat skeletal muscle cells (ATCC, Manassas, VA, USA) were cultured in DMEM supplemented with 10% FBS and 1% penicillin/streptomycin solution at 37°C in a humidified 95% air and 5% CO2 atmosphere (all vol./vol.). […]
Total cell lysates were obtained and separated by SDS-PAGE. […] The protein concentrations in the cell lysates were measured using a Bio-Rad DC (detergent compatible) assay. […]

Prep1 mRNA = assay: Real-time RT-PCR of Prep1 mRNA in L6 cells; format: cell-based, rat; conditions: preliminary data
Protocol: as §6
Total cellular RNA was isolated from L6 cells by using the RNeasy kit (QIAGEN Sciences, Germany), according to manufacturer instructions. 1μg of cell RNA was reverse-transcribed using Superscript III Reverse Transcriptase (Life Technologies Carlsbad, CA, USA). PCR reactions were analyzed using IQTM SYBR Green Supermix (Bio-Rad, Hercules, CA). […]

His6-tagged p160(20-160) = molecular target: T3, His6-tagged p160(20-160) (UniProt Q7TPV4 20-160); assay: ELISA; ELISA-like direct binding: 96-well plate coated with p160(20-160) (0.1 uM); biotinylated peptides at several concentrations added in triplicate; detection with streptavidin-HRP; one-site binding fit (GraphPad Prism); conditions: both partners purified
T3 construct: also called His6-p160(20-160); p160(20-160) domain
T3 sequence (looked up): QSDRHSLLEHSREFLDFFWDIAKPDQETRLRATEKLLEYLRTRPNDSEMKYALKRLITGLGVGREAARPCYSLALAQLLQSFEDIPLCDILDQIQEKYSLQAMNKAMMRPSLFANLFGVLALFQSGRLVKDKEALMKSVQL

Q: With “insulin: insulin used at 100nM to stimulate L6 cells” as the molecule, how does the “stimulation of IR tyrosine phosphorylation” value [1] read?
A: 1.5 fold

Q: And the “stimulation of glycogen synthesis” value (L6 cells [2])?
A: 1.3 fold

Q: And the “stimulation of glucose uptake (2-DG)” value (L6 cells [3])?
A: 2.1 fold

Q: And the “stimulation of IRS1 tyrosine phosphorylation” value [4]?
A: 1.1 fold

Q: Which “IC50, inhibition of p160_20-160/Prep1_45-155 binding” value [5] does the source give for Ac-RHPLFPLLALLFEK-NH2 [Prep1(59-72)] here?
A: did not converge to a meaningful value

Q: And the Kd (p160_20-160)?
A: 1250 nM

Q: Which “reduction of p160 cellular levels” value [6] does the source give for `C[C@@H]1C[C@@H]([C@H](O)CC2CC(=O)NC(=O)C2)C(=O)[C@@H](C)C1` [cycloheximide (CHX), cycloheximide] here?
A: 50%

Q: `Cc1ccc(NCCCc2ccccc2)c(N)c1` [JSH-23] was tested. Which “effect on C2cer-induced Prep1 mRNA expression” value (Prep1 mRNA) did it give?
A: reverts the effect of C2cer

B1: N-terminally biotinylated Prep1(54-72) peptide (peptide)
peptide: Biotin-KQAIYRHPLFPLLALLFEK
notes: Prep1 (Pbx regulating protein 1), stretch of the HR1 domain, named residues 54-72; source: synthetic peptide (Fmoc solid phase, RP-HPLC purified), biotin labelled
Q: How did the Kd (His6-tagged p160(20-160)) turn out when B1 was run?
A: 180 ± 40 nM

B2: N-terminally biotinylated Prep1(59-72) peptide (peptide)
peptide: Biotin-RHPLFPLLALLFEK
notes: Prep1 (Pbx regulating protein 1), stretch of the HR1 domain, named residues 59-72; source: synthetic peptide (Fmoc solid phase, RP-HPLC purified), biotin labelled
Q: For B2, which Kd (His6-tagged p160(20-160)) is on record?
A: 1250 ± 80 nM
